The text below walks through data of patent US12155103B2, “Electrochemical storage devices comprising chelated metals” (The Regents of the University of Colorado, a body corporate, priority 2019, dated 2024).

Read-outs that look alike come from different tables or passages of the source.

The nature of data set [1]: Cyclic voltammetry and kinetic analysis on glassy carbon electrode. The data set is classed as physicochemical. The settings on record: for E^0 / Heterogenous Reduction Rate Constant (k^0) / Diffusion Coefficient (Do): glassy carbon electrode. The method, then: Cyclic voltammetry was conducted using a Gamry Interface 1000 potentiostat, an Ag/AgCl aqueous reference electrode (3 M NaCl filling solution), a Pt wire counter electrode, and a 3-mm-diameter glassy carbon electrode. Half-cell experiments were conducted on a solution containing 5 mM K[Cr(PDTA)], 5 mM K4Fe(CN)6, and 0.125 M K2B4O7 at pH 9.
For an irreversible reaction, the peak current, ip, is given by equation (1).
[formula] where ip is in amperes, A is the electrode area (cm^2), CO° is the bulk concentration of oxidant (moles cm^−3), v is the potential sweep rate (V s^−1), DO is the diffusion coefficient of the oxidant, α is the charge transfer coefficient, and na is the number of […] involved in the rate-determining step. This equation reduces, at 25° C. to equation (2). ip=2.99*10^5n(αna)^1/2ACO^0DO^1/2v^1/2 (2) ip vs. v^1/2 was plotted, giving a straight line, with the slope being proportional to DO. Assuming an αna value of ½ allowed for the solving of DO. For a totally irreversible peak, the peak potential, Ep, is a function of scan rate, the difference between Ep and the formal potential, E^0′, being related to the standard heterogeneous rate constant, k°. The peak current can be expressed as show in equation (3).
[formula] Ln(ip) vs. (Ep−E°′), at different scan rates was plotting, with the intercept being proportional to and allowing solving for k°. E°′ was found in literature to be −1.31 V vs Ag/AgCl. The bulk concentration was 0.005 M, and na was 1 as there is only 1 electron being transferred. The area of the electrode is 0.0707 cm^2 from a 3 mm diameter glassy carbon electrode. Scan rates were done at 25, 50, 100, 200, and 500 mV s^−1. The slope of ip vs. v^1/2 was 0.0747, and the intercept of ln(ip) vs. (Ep−E°′) was −13.527.
Half-cell measurements were made using cyclic voltammetry (CV), which was conducted using a Gamry Interface 1000 potentiostat, an Ag/AgCl aqueous reference electrode (3 M NaCl filling solution), a Pt wire counter electrode, and a 3-mm-diameter glassy carbon working electrode, unless otherwise noted. Solutions were first sparged with an inert gas, for example N2, helium, neon, or argon, or combinations thereof, for at least 15 minutes and then kept under a blanket of an inert gas, such as N2, helium, neon, or argon, or combinations thereof, while tests were performed. All testing was performed at ambient temperatures. For carbon paper cyclic voltammetry experiments, the same setup was used as with the glassy carbon electrode, but the working electrode was a piece of carbon paper. For all chromium complexes and Fe(CN)6 solution 5 mM solutions were utilized for all CV experiments except those utilizing carbon paper electrodes which utilized 50 mM solutions. Other metal chelate complexes have concentrations that are specified in the figure captions.
Cyclic voltammetry (CV) was performed to compare the electrochemical behavior of FeDTPA and CrPDTA with their respective unchelated metal ions. […] Compared to their non-chelated counterparts, a greater electrochemical reversibility is observed in the chelated over the non-chelated metals (FIG. 32).

The conditions of data set [2]: cited from earlier work; for reduction potential E^0: literature or previously reported values.
For data set [3] the following is noted: cited from earlier work.
Data set [4] can be described thus: Stability of iron-chelate complexes at pH 9.
A short description of data set [5]: Maximum solubility at room temperature (saturated or concentrated solution, UV-Vis at 506 nm; bulk electrolysis for K2FeDTPA). It is filed as physicochemical. The method, then:
A saturated solution of KCrPDTA was prepared by dissolving KCrPDTA crystals in minimal DI water at room temperature such that crystals remain undissolved. The solution was agitated for 1 day. […] For the Na^+ cation with CrEDTA, the solubility was determined from a concentrated impure solution containing 3:1 NaCl. […] For the K2 with Fe-DTPA, the solubility was determined from a concentrated impure solution containing 3:1 KCl.

For data set [6] the following is noted: cited from earlier work. This is another data set of the same source.

Take `[Cl][Cr]([Cl])[Cl]` [CrCl3]: in data set [1], the “E^0” value was −0.64 V vs Ag/AgCl and the “Heterogenous Reduction Rate Constant (k^0)” value worked out at 10 ×10⁻⁶ cm/s.

For `O=C(O)CN(CCN(CC(=O)O)CC(=O)O)CC(=O)O.[Cr]` [CrEDTA], in data set [2] (near neutral pH), the “Cr^3+/2+ reduction potential” value was −0.99 V vs. SHE.

`O=C(O)CN(CCN(CC(=O)O)CC(=O)O)CCN(CC(=O)O)CC(=O)O` [DTPA, diethylenetriaminepentaacetic acid]: in data set [3], the “Binding Constant (Fe^+2)” value is reported as 16.55 and the “Binding Constant (Fe^+3)” value is recorded as 28.60.

In the case of `[Fe+2].c1ccc(-c2ccccn2)nc1.c1ccc(-c2ccccn2)nc1.c1ccc(-c2ccccn2)nc1` [Fe(bpy)3], in data set [3], the “Binding Constant (Fe^+2)” value is recorded as 4.2 and the “Binding Constant (Fe^+3)” value is 16.29. The “reduction potential E^0” value in data set [2] is “+0.903 V vs. Ag/AgCl”. Moreover, the “Stability at pH 9” value in data set [4] is recorded as “Insoluble”.

For `[Cl][Fe]([Cl])[Cl]` [FeCl3], in data set [1], the “Diffusion Coefficient (Do)” value is recorded as 7.55 10^−6 cm^2 s^−1, the “E^0” value is reported as 0.55 V vs Ag/AgCl and the “Heterogenous Reduction Rate Constant (k^0)” value turned out to be 3.4 ×10⁻⁶ cm/s. The “heterogeneous reduction rate constant k^0” value in data set [1] (glassy carbon, 3 M HCl) came to 3.4e-06 cm/s. Moreover, the “reduction potential E^0” value in data set [2] is 0.55 V vs. Ag/AgCl.

Consider `O=C([O-])CN(CCN(CC(=O)[O-])CC(=O)[O-])CCN(CC(=O)[O-])CC(=O)[O-].[Fe+3].[K+].[K+]` [FeDTPA K2], for which, in data set [5] (pH 9, 20° C., limited by viscosity), the “maximum solubility / highest concentration cycled” value came out at 1.35 M. The “Max Solubility at RT” value in data set [5] (room temperature) turned out to be 1.35 M. In data set [1], the “Diffusion Coefficient (Do)” value is 2.41 10^−6 cm^2 s^−1, the “E^0” value is listed as −0.15 V vs Ag/AgCl and the “Heterogenous Reduction Rate Constant (k^0)” value worked out at 15.5 ×10⁻⁶ cm/s.

Take `O=C([O-])CN(CCN(CC(=O)[O-])CC(=O)[O-])CC(=O)[O-].[Fe+3].[Na+]` [FeEDTA]: in data set [3], the “Binding Constant (Fe^+2)” value is reported as 14.33 and the “Binding Constant (Fe^+3)” value is listed as 25.10. For the same compound, the “Stability at pH 9” value in data set [4] was “Dimerizes”.

Turning to `O=C([O-])CN(CCO)CCN(CC(=O)[O-])CC(=O)[O-].[Fe+3]` [FeHEDTA], in data set [3], the “Binding Constant (Fe^+2)” value is reported as 12.2 and the “Binding Constant (Fe^+3)” value is recorded as 19.7. Moreover, the “Stability at pH 9” value in data set [4] was “Dimerizes”.

With Mn EDTA, the “RFB Electrolyte solubility” value in data set [6] (pH 3), in data set [6] (pH 4.5), in data set [6] (pH 6), in data set [6] (pH 6.6) and in data set [6] (pH 8.0) was 0.4 M in each case.
